Experimental data reported in patent US11001587B2, “Substituted indazoles as phosphatidylinositol kinase inhibitors” (CUROVIR AB, priority 2017, dated 2021).
Read-outs that look alike come from different tables or passages of the source.

How the values were obtained:
Enterovirus 6 = experiment: In vitro CPE assay in mammalian cell culture, EV6; type: cell-based; conditions: viral cytopathic effect in mammalian cell culture, read-out: EV6 inhibition capacity (IC50)
Enterovirus 30 = experiment: In vitro CPE assay in mammalian cell culture, EV30; type: cell-based; conditions: viral cytopathic effect in mammalian cell culture, read-out: EV30 inhibition capacity (IC50)
Enterovirus 68 = experiment: In vitro CPE assay in mammalian cell culture, EV68; type: cell-based; conditions: Enterovirus D, viral cytopathic effect in mammalian cell culture, read-out: EV68 inhibition capacity (IC50)
Enterovirus 71 = experiment: In vitro CPE assay in mammalian cell culture, EV71; type: cell-based; conditions: Enterovirus A, viral cytopathic effect in mammalian cell culture, read-out: EV71 inhibition capacity (IC50)
coxsackie B1 virus = experiment: In vitro CPE assay in mammalian cell culture, B1; type: cell-based; conditions: viral cytopathic effect in mammalian cell culture, read-out: B1 inhibition capacity (IC50)
coxsackie B2 virus = experiment: In vitro CPE assay in mammalian cell culture, B2; type: cell-based; conditions: viral cytopathic effect in mammalian cell culture, read-out: B2 inhibition capacity (IC50)
coxsackie B3 virus = experiment: In vitro CPE assay in mammalian cell culture, B3; type: cell-based; conditions: Enterovirus B, viral cytopathic effect in mammalian cell culture, read-out: B3 inhibition capacity (IC50)
coxsackie B5 virus = experiment: In vitro CPE assay in mammalian cell culture, B5; type: cell-based; conditions: viral cytopathic effect in mammalian cell culture, read-out: B5 inhibition capacity (IC50)
polio virus Sabin 1 = experiment: organism not typed; type: cell-based; conditions: read-out: Polio 1 inhibition capacity (IC50)
in vivo = experiment: in vivo; design: species or system Sprague Dawley rats; conditions: male, Sprague Dawley, rat, po, 50 mg/kg
Method: Overnight fasted animals were administered with the test compounds in recommended vehicle 0.4% (v/v) Tween 80+2% (v/v) Glycerol and 15% w/v HPBCD by oral route with a dose of 50 mg/kg body weight at dose volume of 10 mL/kg bw. Under mild isoflurane anesthesia, blood samples were collected into pre-labeled tubes containing anticoagulant (K2EDTA—2 mg/mL blood) during the next 24 hours post dose. Collected blood samples were centrifuged at 4000 rpm, 4° C. for 10 minutes and plasma was separated and stored at −80° C. until analysis.

[1] = Metabolic stability in human liver microsomes; type: in vitro ADME; conditions: for Remaining after 1 h, HLM: human liver microsomes, 5 μM test item, 0.125 mg/mL microsomal protein; for half-life at 5 μM: human, microsomes
Method: (§1) Metabolic stability in human and rat liver microsomesMetabolic stability was studied using human (HLM) or rat (RLM) liver microsomes. The final composition of the assay included 5 μM of test item and reference item (Diclofenac or Imipramine) prepared from DMSO stock, so that the final concentration of DMSO was 0.1%, 0.125 mg/mL microsomal protein and cofactors (5.0 mM G-6-P, 0.06 U/mL G-6-PDH, 2.0 mM MgCl2, 1.0 mM NADP^+). Test and reference items were incubated with human or rat liver microsomes with or without cofactors. The reaction mixture (100 μL) was removed at specified time periods and the reaction was stopped by addition of stop solution. The samples were extracted in presence of internal standard and were analyzed using LC-MS/MS. The percent of the test/reference item remaining after a specified incubation period was calculated with respect to the peak area ratio at time 0 min.

[2] = Metabolic stability in rat liver microsomes; type: in vitro ADME; conditions: 5 μM test item, 0.125 mg/mL microsomal protein
Method: as §1

in vitro = in vitro ADME; conditions: plasma, pH 7.4
Method: Plasma protein binding study was performed by using a Rapid Equilibrium Dialysis (RED) device containing dialysis membrane with a molecular weight cut-off of 8,000 Daltons. Each dialysis insert contains two chambers. The red chamber was for the plasma while the white chamber was for the buffer. The human and rat plasma (pH adjusted to 7.40) samples of test items and reference items (Warfarin and Propranolol) were prepared at a required test concentration of 5 μM using 5 mM DMSO stocks (final DMSO concentration was 0.1%). 300 μL of plasma sample was added into the sample chamber. 500 μL of buffer was added into the buffer chamber. After sealing the RED device with an adhesive film, incubation was done at 37° C. with shaking at 300 rpm for 4 h. Following incubation, an aliquot of 50 μL was removed from each well (plasma and buffer side) and diluted with equal volume of opposite matrix to nullify the matrix effect. The specimens were subjected to sample extraction in presence of internal standard by liquid-liquid extraction/protein precipitation method. After extraction, the samples were transferred into labeled auto sampler vials and submitted to LC-MS/MS analysis.

coxsackie B4 virus = experiment: In vitro CPE assay in mammalian cell culture, B4; type: cell-based; conditions: Enterovirus B, viral cytopathic effect in mammalian cell culture, read-out: B4 inhibition capacity (IC50)
EV71 = experiment: Time of addition assay; type: cell-based, Enterovirus 71; conditions: Enterovirus A, 100 nM, EV71 at high titer
Method: The titer of the virus was determined by the standard method of tissue culture infective dose (TCID50) on cells. Briefly, cells were infected with 50 μl of virus suspension, and diluted 10-fold in media. The plates were incubated in 37° C. with 5% CO2 for 3-7 days and cells were inspected daily for CPE. After determining CPE, plates were stained with Gram's Crystal Violet solution and optical density was read at 540 nm. […] Substances at a final concentration of 0.1 nM-1 μM and the virus were added to the cells and incubated for 3-7 days depending on the virus and cell line used. As controls, uninfected cells and cells infected with virus (no substance) were included on each plate. The cells were stained with crystal violet after determining the CPE on infected controls and the optical density was read at 540 nm. The inhibition capacity was calculated as a % by comparison with non-infected and infected controls. Time of addition assay The assay was performed like the “in vitro assay in mammalian cell culture” described above with the exception that substance was added one hour pre inoculation (−1 h), at inoculation (0 h), and 2 hours (+2 h), 6 hours (+6 h) or 24 hours (+24 h) past inoculation. The virus EV71 was used at high titer for the test.

Structure (SMILES) | IC50 (Enterovirus 6) | IC50 (Enterovirus 30) | IC50 (Enterovirus 68) | IC50 (Enterovirus 71) | IC50 (coxsackie B1 virus) | IC50 (coxsackie B2 virus) | IC50 (coxsackie B3 virus) | IC50 (coxsackie B5 virus) | IC50 (polio virus Sabin 1) | IC50 (coxsackie B4 virus) | other results
Cc1cc(NCc2ccncc2)c2nc(C)c(-c3ccc4c(c3)c(C)nn4C)n2n1 [Example 1, 3-(1,3-dimethyl-1H-indazol-5-yl)-2,6-dimethyl-N-(pyridin-4-ylmethyl)imidazo[1,2-b]pyridazin-8-amine] | < 10 nM | < 0.1 nM | < 100 nM | < 10 nM | < 10 nM | < 10 nM | < 1 nM | < 0.1 nM | < 1 nM | – | AUC(0-inf) (in vivo): 31800 ± 8000 ng·h/mL; AUC(0-t) (in vivo): 22200 ± 2100 ng·h/mL; AUCextrap (in vivo): 27.8 ± 14.8%; Cmax (in vivo): 3900 ± 400 ng/mL; MRT last (in vivo): 3.4 ± 0.2 h; Tmax (in vivo): 1.7 ± 0.6 h; half-life (in vivo): 4.3 ± 2 h; Remaining after 1 h, HLM [1]: 90%; half-life at 5 μM [1]: > 2 h; Remaining after 1 h, RLM [2]: 88%; fraction unbound at 4 h, 5 μM (in vitro; human): 0.016; fraction unbound at 4 h, 5 μM (in vitro; rat): 0.03
Cc1cc(NCc2ccc(S(C)(=O)=O)cc2)c2nc(C)c(-c3ccc4c(c3)c(C)nn4C)n2n1 [Example 7, 3-(1,3-dimethyl-1H-indazol-5-yl)-2,6-dimethyl-N-(4-(methyl-sulfonyl)benzyl)imidazo[1,2-b]pyridazin-8-amine] | – | < 100 nM | < 1 nM | < 1 nM | < 10 nM | < 10 nM | < 1 nM | < 10 nM | < 10 nM | < 100 nM | inhibition at 0.1 µM (EV71; 0 h, substance added at inoculation, read-out: Inhibition of cytopathogenic effect, 0 h): 85%; inhibition at 0.1 µM (EV71; 1 h, substance added one hour pre inoculation, read-out: Inhibition of cytopathogenic effect, −1 h): 95%; inhibition at 0.1 µM (EV71; substance added 2 hours past inoculation, read-out: Inhibition of cytopathogenic effect, +2 h): 100%; inhibition at 0.1 µM (EV71; substance added 6 hours past inoculation, read-out: Inhibition of cytopathogenic effect, +6 h): 91%; inhibition at 0.1 µM (EV71; substance added 24 hours past inoculation, read-out: Inhibition of cytopathogenic effect, +24 h): 2%; Remaining after 1 h, HLM [1]: 75%; half-life at 5 μM [1]: > 2 h; Remaining after 1 h, RLM [2]: 94%; fraction unbound at 4 h, 5 μM (in vitro; human): 0.005; fraction unbound at 4 h, 5 μM (in vitro; rat): 0.006
Cc1nc(NCc2ccc(Cl)cc2)n2nc(C)c(-c3ccc4c(c3)c(C)nn4C)c2n1 [Example 24, N-(4-chlorobenzyl)-8-(1,3-dimethyl-1H-indazol-5-yl)-2,7-dimethylpyrazolo[1,5-a][1,3,5]triazin-4-amine] | < 1000 nM | < 100 nM | < 1000 nM | < 100 nM | < 100 nM | < 100 nM | < 100 nM | < 1000 nM | < 100 nM | < 100 nM | –
Cc1cc(NCc2cccs2)n2nc(C)c(-c3ccc4c(c3)c(C)nn4C)c2n1 [Example 15, 3-(1,3-dimethyl-1H-indazol-5-yl)-2,5-dimethyl-N-(thiophen-2-ylmethyl)pyrazolo[1,5-a]pyrimidin-7-amine] | < 100 nM | < 100 nM | < 100 nM | < 100 nM | < 100 nM | < 100 nM | < 100 nM | < 100 nM | < 100 nM | < 100 nM | –
Cc1cc(NCc2ccc(S(N)(=O)=O)cc2)n2nc(C)c(-c3ccc4c(c3)c(C)nn4C)c2n1 [Example 13, 4-(((3-(1,3-dimethyl-1H-indazol-5-yl)-2,5-dimethylpyrazolo[1,5-a]pyrimidin-7-yl)amino)methyl)benzene-sulfonamide] | < 1000 nM | < 100 nM | < 1000 nM | < 100 nM | < 1000 nM | < 1000 nM | < 100 nM | < 100 nM | < 100 nM | < 100 nM | AUC(0-inf) (in vivo): 76100 ± 26800 ng·h/mL; AUC(0-t) (in vivo): 62100 ± 10900 ng·h/mL; AUCextrap (in vivo): 14.5 ± 17.1%; Cmax (in vivo): 5900 ± 900 ng/mL; MRT last (in vivo): 7.5 ± 1.4 h; Tmax (in vivo): 2 h; half-life (in vivo): 8.2 ± 5.4 h
Cc1nc(NCc2ccc(S(N)(=O)=O)cc2)n2nc(C)c(-c3ccc4c(c3)c(C)nn4C)c2n1 [Example 23, 4-(((8-(1,3-dimethyl-1H-indazol-5-yl)-2,7-dimethylpyrazolo[1,5-a][1,3,5]triazin-4-yl)amino)methyl)benzene-sulfonamide] | < 100 nM | < 100 nM | < 100 nM | < 10 nM | < 100 nM | < 100 nM | < 100 nM | < 100 nM | < 100 nM | < 10 nM | –
Cc1ccc(CNc2nc(C)nc3c(-c4ccc5c(c4)c(C)nn5C)c(C)nn23)cn1 [Example 22, 8-(1,3-dimethyl-1H-indazol-5-yl)-2,7-dimethyl-N-((6-methylpyridin-3-yl)methyl)pyrazolo[1,5-a][1,3,5]triazin-4-amine] | < 1000 nM | < 100 nM | < 100 nM | < 10 nM | < 10 nM | < 10 nM | < 1 nM | < 100 nM | < 1 nM | < 1000 nM | –
Cc1cc(NCc2ccc(Cl)cc2)n2nc(C)c(-c3ccc4c(c3)c(C)nn4C)c2n1 [Example 11, N-(4-chlorobenzyl)-3-(1,3-dimethyl-1H-indazol-5-yl)-2,5-dimethylpyrazolo[1,5-a]pyrimidin-7-amine] | < 1000 nM | < 1000 nM | < 1000 nM | < 1000 nM | < 1000 nM | < 1000 nM | < 1000 nM | < 1000 nM | < 1000 nM | < 100 nM | –
Cc1cc(NCc2ccc(NS(C)(=O)=O)cc2)n2nc(C)c(-c3ccc4c(c3)c(C)nn4C)c2n1 [Example 16, N-(4-(((3-(1,3-dimethyl-1H-indazol-5-yl)-2,5-dimethylpyrazolo[1,5-a]pyrimidin-7-yl)amino)meth-yl)phenyl)methane-sulfonamide] | < 1000 nM | < 1000 nM | < 1000 nM | < 1000 nM | < 1000 nM | < 1000 nM | < 100 nM | < 1000 nM | < 1000 nM | < 100 nM | –
